In ChEMBL document CHEMBL3301451, “MMV Malaria Box gametocyte functional viability assay screening”:

Legend:
Type in all cases: functional
Parameters in all cases: concentration or dose not given beside the values
[1] = system: Plasmodium berghei; assay: MMV: P. berghei-infected blood was withdrawn from mice by cardiac pucture before being immediately added to ookinete culture medium containing test compounds. 26 hr later, GFP-positive ookinetes were identified and counted by automated microscopy. All compounds were tested in 4 independent experiments and data presented here is the mean.
[2] = system: Plasmodium falciparum; assay: MMV: P. falciparum NF54 functionally mature Stage V gametocytes were incubated for 24 hr in the presence of the test compounds. Gamete formation was then triggered by addition of 2uM xantheurenic acid and temperature decrease to ~20C. Female gamete formation was recorded 24 hr later by automated microscopy detection of surface labelling of female gametes with a Cy3-conjugated antibody reactive to Pfs25. All compounds were tested in 4 independent experiments and data presented here is the mean.; details: NF54, 24 h
[3] = system: Plasmodium falciparum; assay: MMV: P. falciparum NF54 functionally mature Stage V gametocytes were incubated for 24 hr in the presence of the test compounds. Gamete formation was then triggered by addition of 2uM xantheurenic acid and temperature decrease to ~20C. Male gamete exflagellation was recorded and analysed by automated microscopy after 20 min. All compounds were tested in 4 independent experiments and data presented here is the mean.

| SMILES | inhibition [1] | inhibition [2] | inhibition [3] |
| --- | --- | --- | --- |
| Cc1ccc(Cn2c(N3CCC(C(=O)NCc4cccs4)CC3)nc3ccccc32)cc1 | 6.449% | -22.4% | 12.1% |
| Cc1ccc(C)c(Cn2c(N3CCC(C(=O)NCc4cccs4)CC3)nc3ccccc32)c1 | -3.865% | 9.01% | -124% |
| O=C(Nc1nc(-c2ccccn2)cs1)c1ccccc1Br | 2.456% | -22.2% | -29.6% |
| Cc1ccccc1OCCSc1nc2ccc(NC(=O)c3ccccc3)cc2s1 | -15.11% | -13.8% | 5.46% |
| O=C(NC(c1ccccc1)c1ccc2cccnc2c1O)c1ccccc1 (stereo not drawn) | 6.162% | -22.7% | 5.16% |
| Cc1cc(NC(=O)c2cccc(C(F)(F)F)c2)n(-c2nc(-c3ccc4c(c3)OCO4)cs2)n1 | -1.403% | 17.1% | 11.3% |
| O=C(NNc1cc(N2CCCC2)nc(N2CCCC2)n1)c1ccccc1 | 26.51% | -28.5% | 30.4% |
| CCCCNCC(O)(c1ccc(Cl)cc1)c1ccc(Cl)cc1 | 10.56% | -11% | 5.76% |
| CCCCOc1ccc(C(=O)Nc2cc(C)on2)cc1 | 1.333% | -26.5% | 47.5% |
| COc1cccc(C=Cc2nc(=O)c3ccccc3o2)c1OC | 98.18% | -15.1% | -2.89% |
| Cc1cc(NC(=O)C2c3ccccc3C(=O)N(CC(C)C)C2c2cccs2)no1 (stereo not drawn) | -16.54% | 40.3% | 52.5% |
| CCOc1cc2c(cc1OCC)C(c1cc(Cl)ccc1O)NCC2 (stereo not drawn) | 9.631% | -14.7% | 4.54% |
| COc1ccccc1C(=O)ON=C(N)Cc1cccc2ccccc12 | -22.37% | 14.9% | 30.9% |
| Cc1cc(NC(=O)c2ccc(-c3ccccc3)cc2)no1 | -9.578% | -45.6% | 18.9% |
| COc1ccc(C(=O)C2CC2c2ccc(Cl)cc2)cc1 (stereo not drawn) | -7.167% | -10.6% | 19.4% |
| OC(CNCC1CCCO1)Cn1c2ccc(Cl)cc2c2cc(Cl)ccc21 (stereo not drawn) | 3.62% | -43.4% | -34.5% |
| O=C(O)C(=O)O.Oc1ccc(Br)cc1CN1CCN(Cc2cccc(F)c2)CC1 | -11.78% | -17.6% | 27.2% |
| CCOc1ccc(Nc2ccnc3cc(Cl)ccc23)cc1 | -13.78% | -52.9% | -4.26% |
| CC(C)(C)CC(C)(C)NCC(O)COc1ccc2c(c1)CCC2.Cl (stereo not drawn) | -7.207% | -4.34% | -54.4% |
| Cc1ccc2cc3c(N)c4c(C)ccc(C)c4nc3nc2c1 | -10.8% | -28.1% | -9.27% |
| CCOC(=O)c1c(C)n(-c2ccc(Cl)cc2)c2ccc(OC(=O)C=Cc3ccccc3)cc12 | -22.23% | -9.97% | 18.8% |
| CCN(CC)CCCNc1ccnc2cc3ccccc3cc12 | -14.18% | 20.2% | 30.2% |

| SMILES | inhibition [1] | inhibition [2] | inhibition [3] |
| --- | --- | --- | --- |
| Cc1sc2ncnc(Sc3nc4ccccc4[nH]3)c2c1C | 65.53% | -10.9% | 30.8% |
| O=C(CCc1ccccc1)c1ccccc1OCC(O)CN1CCCCC1 (stereo not drawn) | -0.1506% | -34.8% | 22.9% |
| Cc1ccc(Cl)cc1N1CCN(CCCNC(=O)C2CCN(c3nc4ccccc4[nH]3)CC2)CC1 | -9.077% | -57.2% | 5% |
| Cc1cc(=O)oc2c1ccc1oc(C(=O)c3ccccc3)c(C)c12 | 6.058% | -19.6% | -11.5% |
| COc1ccc2nc(N)nc(C)c2c1 | -8.497% | 6.91% | 45.7% |
| COc1ccc(-c2c(C)nn3c(N)c(C#N)cnc23)cc1OC | 6.903% | -16.8% | -13.8% |
| O=C(NC1CCN(Cc2ccccc2)CC1)c1cc(C(=O)NC2CCN(Cc3ccccc3)CC2)cc(C(=O)NC2CCN(Cc3ccccc3)CC2)c1 | -11.8% | -6.87% | 57% |
| CCc1ccc(Nc2cc(C)nc3nc(C)nn23)cc1 | -14.94% | -17.7% | 20.5% |
| O=C(Nc1ccc(Br)cc1)Nc1cccc(Cl)c1 | -16.14% | -16.5% | 24.2% |
| CCCC(c1nnnn1C1CCCCC1)N1CCN(C(=O)c2ccco2)CC1.Cl (stereo not drawn) | -10.21% | -48.5% | 23.7% |
| C[n+]1c2ccccc2nc2ccc(NCCO)cc21 | 4.233% | -21.5% | 33.8% |
| O=C(Nc1ccc(-c2nc3ccccc3[nH]2)cc1)c1ccc(Cl)c(Cl)c1 | -25.94% | -34.9% | 4.23% |
| CC(C)(C)c1ccc2c(c1)CN(Cc1ccc(Cl)cc1)CO2 | 3.358% | 6.43% | -12.2% |
| CN(N=O)C1=C(NC2CCCCC2)C(=O)c2ccccc2C1=O | -8.019% | -27.6% | 10.5% |
| O=C(NCC1Cc2cccc(-c3ccncc3)c2O1)c1csc2c1CCCC2 (stereo not drawn) | -13.38% | -19.3% | 20.6% |
| CCCCCn1c(=N)n(CC(O)COc2cccc(C)c2)c2ccccc21.Cl (stereo not drawn) | 6.769% | -30.6% | -6.7% |
| Nc1nc(Nc2cccc(F)c2)nc2ccccc12 | 16.83% | -41.8% | -16.2% |
| Cc1ccc(CSCc2ccc(C(=O)NC3CC3)o2)cc1 | 11.64% | -29.1% | 34.4% |
| CCC1(C)CC(CCNCc2ccccc2O)(c2ccc(C)cc2)CCO1 (stereo not drawn) | -38.74% | 7.59% | -6.89% |
| CC(C)(C)c1ccc(C(=O)Nc2nc3ccccc3s2)cc1 | 18.69% | -4.04% | 26.1% |
| Cl.Oc1ccccc1CNCC12CC3CC(CC(C3)C1)C2 | -22.21% | -6.61% | -27.5% |
| O=C(Nc1ccsc1C(=O)NC1CCCCC1)c1ccc(F)cc1 | -7.294% | -14.2% | 0.722% |

| SMILES | inhibition [1] | inhibition [2] | inhibition [3] |
| --- | --- | --- | --- |
| CC(C)(C)c1ccc(C2CC3=Nc4ccccc4N(C(=O)c4ccccc4Cl)C(c4ccc(F)cc4)C3=C(O)C2)cc1 (stereo not drawn) | 4.566% | -44.4% | -39.9% |
| COc1ccc2nc(C)cc(Nc3cccc(O)c3)c2c1.Cl | -5.92% | -5.48% | -12.1% |
| COc1ccc(/C=C2/SC(=Nc3ccccc3)NC2=O)cc1 | 15.63% | -46.5% | 3.39% |
| CC(=O)Nc1nnc(SCc2c(C)cc(C(C)(C)C)cc2C)s1 | 4.957% | 5.39% | 17.4% |
| FC(F)(F)c1ccc(Nc2nnnc3ccccc23)cc1 | 36.6% | -30.5% | 33.7% |
| COc1ccc(CCNC(=O)c2cc(S(=O)(=O)N3CC(C)CC(C)C3)ccc2Sc2ccc(F)cc2)cc1OC (stereo not drawn) | -21.03% | 4.07% | -26.1% |
| Cc1cc(Nc2ccc(C)c(Cl)c2)n2nc(C(F)(F)F)nc2n1 | -5.541% | -44.8% | 17.1% |
| CSc1ccccc1C(=O)Nc1nc(-c2ccccn2)cs1 | -9.487% | -18.6% | 20.5% |
| O=C1c2ccccc2-c2nnc(-c3ccc(Br)cc3)cc21 | 9.656% | -19.6% | 19.4% |
| O=C(NC1CCN(Cc2ccccc2)CC1)c1cc(-c2cccnc2)nc2ccc(Cl)cc12 | -13.2% | -32.7% | -6.01% |
| COC(=O)c1ccc(C2C3=C(O)CC(c4ccc(F)cc4)CC3=Nc3ccccc3N2C(=O)c2ccccc2)cc1 (stereo not drawn) | -3.179% | -31.4% | -76.8% |
| O=C(NCc1ccco1)C1CCN(S(=O)(=O)c2ccc(Cl)cc2)CC1 | 33.84% | -26.9% | 46.2% |
| COc1cc2cc(C(=O)Nc3ccccc3)c(N)nc2cc1OC | 8.567% | -10% | 22% |
| CCCCCCc1cc(O)c2c3c(c(=O)oc2c1)CCC(C)C3 (stereo not drawn) | -17.21% | -7.13% | -1.29% |
| O=C(Nc1ccccc1O)c1ccc(Oc2cccc(C(=O)Nc3ccccc3O)c2)cc1 | -7.561% | -9.72% | 15.9% |
| Cc1cc(N(C)C)nc(Nc2ccc(NC(=O)Nc3ccccc3)cc2)n1 | -9.07% | -35.4% | 33.6% |
| COc1cc2c(cc1OC)C1=NNC(=O)C1=NC(C)(C)C2 | -11.77% | -26.2% | 52.9% |
| Cc1ccc(OCCCCCCNCCO)c(C)c1 | -11.75% | 0.189% | -19.1% |
| CCCCc1c(C)nc2c(OC)cccc2c1O | 20.97% | 0.0743% | 54.7% |
| O=C(Nc1ccc(N2CCCCC2)c(Cl)c1)c1ccc(Br)o1 | 4.656% | -35.3% | 41.2% |
| CCCc1c(C)nc2ccccc2c1O | 34.59% | 1.84% | 66.4% |
| CCOC(=O)C1=C(c2ccccc2)N=c2sc(=Cc3cc(C)n(-c4ccc(F)cc4)c3C)c(=O)n2C1c1cccc(OC)c1OC (stereo not drawn) | -41.23% | -0.952% | 17.4% |
